Among the data in patent publication US6806275B2, “Arylpiperidine derivatives and use thereof” (Nihon Nohyaku Co., Ltd., priority 1998, dated 2004) are IC50 and melting point values, retold here.

One may read the IC50 as the concentration that gives 50% inhibition. By melting point is commonly meant the temperature, or range, at which the solid turns liquid.

One series has as its target T1, human D4.2 receptor (Homo sapiens, UniProt P21917, DEL265-296).
T1 construct: expressed in transfected cells; host or cells: CHO cells (membrane preparation)
T1 sequence (P21917 with tags, fused parts or gaps DEL265-296): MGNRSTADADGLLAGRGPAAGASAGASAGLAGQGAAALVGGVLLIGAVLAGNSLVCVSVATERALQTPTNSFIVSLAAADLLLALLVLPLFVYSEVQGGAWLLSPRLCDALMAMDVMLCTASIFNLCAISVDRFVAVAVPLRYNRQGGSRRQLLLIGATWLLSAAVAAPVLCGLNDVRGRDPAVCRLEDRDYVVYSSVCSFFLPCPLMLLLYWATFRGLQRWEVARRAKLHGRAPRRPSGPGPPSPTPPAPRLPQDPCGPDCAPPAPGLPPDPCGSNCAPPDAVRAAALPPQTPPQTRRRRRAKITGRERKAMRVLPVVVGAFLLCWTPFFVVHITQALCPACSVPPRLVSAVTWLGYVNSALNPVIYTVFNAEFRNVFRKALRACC
Briefly: Dopamine D4 receptor binding assay ([3H]spiperone). The note with it: CHO cell membrane expressing human D4.2 receptor; [3H]spiperone 0.5 nM; 27° C., 2 hours. The method, then:
1. Dopamine D4 Receptor Binding Assay
Chinese hamster ovarium (CHO) cell membrane wherein human D4.2 receptor was expressed was used as a receptor preparation.
[^3H] spiperone was used as a [^3H]-labeled ligand.
Human D4.2 receptor binding assay: The (CHO) cell membrane wherein human D4.2 receptor was expressed, [^3H] spiperone (0.5 nM) and each test drug were incubated at 27° C. for 2 hours in 50 mM Tris-hydrochloric acid buffer (pH 7.4) containing 5 mM EDTA, 1.5 mM calcium chloride, 5 mM potassium chloride and 120 mM sodium chloride.
(§1) After completion of the reaction, the reaction mixture was filtered by suction through a glass filter (GF/B), and radioactivity in the filter paper was measured with a liquid scintillation spectrometer.
Binding under the reaction of [^3H] spiperone carried out in the presence of 10 μM haloperidol was defined as nonspecific binding of [^3H] spiperone, and the difference between the total binding and the nonspecific binding was defined as specific binding.

Series [1] concerns the target T2, Dopamine D2 receptor (rat striatum membrane) (Rattus norvegicus, UniProt P61169).
T2 construct: Rat striatum was homogenized in 50 mM Tris-hydrochloric acid buffer (pH 7.4); from tissue; host or cells: rat striatum
Briefly: Dopamine D2 receptor binding assay ([3H]raclopride). The note with it: [3H]raclopride 1 nM, 25° C., 1 hour. The method, then:
2. Dopamine D2 Receptor Binding Assay
Rat striatum membrane was used as a receptor preparation.
[^3H] raclopride was used as a [^3H]-labeled ligand.
Preparation of the receptor preparation: Rat striatum was homogenized in 50 mM Tris-hydrochloric acid buffer (pH 7.4), and the homogenate was centrifuged at 48,000×g and the pellet was washed once with Tris-hydrochloric acid buffer. The washed pellet was suspended in 50 mM Tris-hydrochloric acid buffer (pH 7.4) containing 120 mM sodium chloride, 5 mM potassium chloride, 2 mM calcium chloride and 1 mM magnesium chloride, to obtain a membrane preparation.
Dopamine D2 receptor binding assay: The membrane preparation (0.5 mg protein/ml), [^3H] raclopride (1 nM) and each test drug were incubated at 25° C. for 1 hour.
as §1
Binding under the reaction of [^3H] raclopride carried out in the presence of 10 μM haloperidol was defined as nonspecific binding of [^3H] lacropirido, and the difference between the total binding and the nonspecific binding was defined as specific binding.

T2 sequence (P61169 whole entry): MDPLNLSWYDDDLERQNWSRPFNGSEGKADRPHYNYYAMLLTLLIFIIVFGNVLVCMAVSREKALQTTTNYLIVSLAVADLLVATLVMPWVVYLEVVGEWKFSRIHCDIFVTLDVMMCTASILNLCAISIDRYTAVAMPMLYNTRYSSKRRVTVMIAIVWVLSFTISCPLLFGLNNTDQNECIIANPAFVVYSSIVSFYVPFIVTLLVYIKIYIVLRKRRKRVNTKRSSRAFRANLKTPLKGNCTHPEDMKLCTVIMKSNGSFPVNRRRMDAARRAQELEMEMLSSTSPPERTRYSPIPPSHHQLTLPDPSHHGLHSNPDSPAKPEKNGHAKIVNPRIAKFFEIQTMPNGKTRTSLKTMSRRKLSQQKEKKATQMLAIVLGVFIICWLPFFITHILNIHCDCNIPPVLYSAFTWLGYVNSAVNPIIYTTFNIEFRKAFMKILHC

In the case of `Cc1nc(-c2ccc(F)cc2)c(CCN2CCC(c3c[nH]c4ccccc34)CC2)s1` [B-11], the melting point was in the range of 165 to 167 °C. This molecule also registered a half-maximal inhibitory concentration (IC50) on human D4.2 receptor of 0.4 nM. This molecule yielded an IC50 in series [1] of 26.6 nM.

The molecule `Fc1ccc(-c2[nH]ncc2CCN2CCC(c3csc4cc(F)ccc34)CC2)cc1` [Example 10, 5-(4-fluorophenyl)-4-[2-[4-(6-fluorobenzo[b]thiophen-3-yl)piperidin-1-yl]ethyl]pyrazole] showed a melting point of 162 to 163 °C.

Molecule `Oc1nc(-c2ccc(F)cc2)c(CCN2CCC(c3coc4cc(F)ccc34)CC2)s1` [B-06, 2-hydroxy-4-(4-fluorophenyl)-5-[2-[4-(6-fluorobenzofuran-3-yl)piperidin-1-yl]ethyl]thiazole] gave a melting point of 186 to 188 °C.

The molecule `Nc1nc(-c2ccc(F)cc2)c(CCN2CCC(n3cnc4cc(F)ccc43)CC2)s1` [B-25] had a melting point of 282 to 284 °C. The IC50 on human D4.2 receptor was found to be 32 nM. Moreover, the IC50 in series [1] is over 1000 nM.

Take `Fc1ccc(-c2ncncc2CCN2CCC(c3csc4cc(F)ccc34)CC2)cc1` [Example 11, 6-(4-fluorophenyl)-5-[2-[4-(6-fluorobenzo[b]thiophen-3-yl)piperidin-1-yl]ethyl]pyrimidine]: the melting point is 123 to 124 °C.

On to `Nc1nc(-c2ccc(F)cc2)c(CCN2CCC(c3c[nH]c4ccccc34)CC2)s1` [B-09], for which the melting point was in the range of 203 to 203.5 °C. Besides, on human D4.2 receptor, the IC50 turned out to be 2 nM. In series [1], this molecule came in with an IC50 of 81.1 nM.

Take `Nc1nc(-c2ccc(F)cc2)c(CCN2CCC(c3coc4cc(F)ccc34)CC2)s1` [B-01, 2-amino-4-(4-fluorophenyl)-5-[2-[4-(6-fluorobenzofuran-3-yl)piperidin-1-yl]ethyl]thiazole]: the values for the IC50 (at human D4.2 receptor; in series [1]) were 3.1 nM and 67.3 nM, respectively.

Turning to `Nc1nc(-c2ccc(F)cc2)c(CCN2CCC(n3nnc4cc(F)ccc43)CC2)s1` [B-26, 2-amino-4-(4-fluorophenyl)-5-[2-[4-(5-fluoro-1H-benzotriazol-1-yl)piperidin-1-yl]ethyl]thiazole], the IC50 on human D4.2 receptor worked out at 5.5 nM; in series [1], 298 nM.

Regarding `CSc1nc(-c2ccc(F)cc2)c(CCN2CCC(n3nnc4cc(F)ccc43)CC2)[nH]1` [C-03, 2-methylthio-4-(4-fluorophenyl)-5-[2-[4-(5-fluoro-1H-benzotriazol-1-yl)piperidin-1-yl]ethyl]imidazole], the melting point lay within 223 to 224 °C.

`Cc1nc(-c2ccc(F)cc2)c(CCN2CCC(n3nnc4cc(F)ccc43)CC2)s1` [B-29]: the melting point lay within 145 to 146 °C. In addition, the IC50 on human D4.2 receptor was determined as 2.4 nM. The molecule further registered an IC50 in series [1] of 206 nM.
